From US20240082223A1, “DIHYDROFUROPYRIDINE DERIVATIVES AS RHO- KINASE INHIBITORS” (CHIESI FARMACEUTICI S.P.A., priority 2020, published 2024) come the findings set out here.

What is called Ki is a dissociation constant, usually derived from enzyme kinetics or from competition with a known ligand.

One experiment concerns the target ROCK1 (Homo sapiens, UniProt Q13464). Nature of the experiment: In vitro inhibitory activity assay ROCK1 (Method A, ADP-Glo, 10 μM ATP). In kind it is biochemical. As to conditions: ATP 10 μM, read-out: Method A ROCK 1 (Ki). On the procedure: (§1) In vitro inhibitory activity assay description ROCK1 and ROCK2
(§2) The effectiveness of compounds of the present invention to inhibit Rho kinase activity can be determined in a 10 μl assay containing 40 mM Tris pH7.5, 20 mM MgCl2 0.1 mg/mL BSA, 50 μM DTT and 2.5 μM peptide substrate (Myelin Basic Protein) using an ADP-Glo kit (Promega). Compounds were dissolved in DMSO such that the final concentration of DMSO was 1% in the assay. All reactions/incubations are performed at 25° C. Compound (2 uL) and either Rho kinase 1 or 2 (4 μl) were mixed and incubated for 30 min. Reactions were initiated by addition of ATP (4 μL) such that the final concentration of ATP in the assay was 10 μM. After a 1 hour incubation […] of ADP-Glo Reagent was added and after a further 45 minutes incubation 20 uL of Kinase Detection Buffer was added and the mixture incubated for a further 30 minutes. The luminescent signal was measured on a luminometer. […] Compounds were tested in dose-response format and the inhibition of kinase activity was calculated at each concentration of compound. To determine the IC50 (concentration of compound required to inhibit 50% of the enzyme activity) data were fit to a plot of % inhibition vs Log10 compound concentration using a sigmoidal fit with a variable slope and fixing the maximum to 100% and the minimum to 0%. To determine the Ki values the Cheng-Prusoff equation was utilized (Ki=IC50/(1+[S]/Km).
(In general: ADP-Glo first removes unused ATP, then detects ADP through luciferase.)

A further experiment concerns the target ROCK2 (Homo sapiens, UniProt O75116). The experiment is described as follows: In vitro inhibitory activity assay ROCK2 (Method A, ADP-Glo, 10 μM ATP). Format: biochemical. As to conditions: ATP 10 μM, read-out: Method A ROCK 2 (Ki). On the procedure:
as §1, §2

Some results are limits rather than exact numbers.

Sequence of ROCK1 (Q13464 whole entry): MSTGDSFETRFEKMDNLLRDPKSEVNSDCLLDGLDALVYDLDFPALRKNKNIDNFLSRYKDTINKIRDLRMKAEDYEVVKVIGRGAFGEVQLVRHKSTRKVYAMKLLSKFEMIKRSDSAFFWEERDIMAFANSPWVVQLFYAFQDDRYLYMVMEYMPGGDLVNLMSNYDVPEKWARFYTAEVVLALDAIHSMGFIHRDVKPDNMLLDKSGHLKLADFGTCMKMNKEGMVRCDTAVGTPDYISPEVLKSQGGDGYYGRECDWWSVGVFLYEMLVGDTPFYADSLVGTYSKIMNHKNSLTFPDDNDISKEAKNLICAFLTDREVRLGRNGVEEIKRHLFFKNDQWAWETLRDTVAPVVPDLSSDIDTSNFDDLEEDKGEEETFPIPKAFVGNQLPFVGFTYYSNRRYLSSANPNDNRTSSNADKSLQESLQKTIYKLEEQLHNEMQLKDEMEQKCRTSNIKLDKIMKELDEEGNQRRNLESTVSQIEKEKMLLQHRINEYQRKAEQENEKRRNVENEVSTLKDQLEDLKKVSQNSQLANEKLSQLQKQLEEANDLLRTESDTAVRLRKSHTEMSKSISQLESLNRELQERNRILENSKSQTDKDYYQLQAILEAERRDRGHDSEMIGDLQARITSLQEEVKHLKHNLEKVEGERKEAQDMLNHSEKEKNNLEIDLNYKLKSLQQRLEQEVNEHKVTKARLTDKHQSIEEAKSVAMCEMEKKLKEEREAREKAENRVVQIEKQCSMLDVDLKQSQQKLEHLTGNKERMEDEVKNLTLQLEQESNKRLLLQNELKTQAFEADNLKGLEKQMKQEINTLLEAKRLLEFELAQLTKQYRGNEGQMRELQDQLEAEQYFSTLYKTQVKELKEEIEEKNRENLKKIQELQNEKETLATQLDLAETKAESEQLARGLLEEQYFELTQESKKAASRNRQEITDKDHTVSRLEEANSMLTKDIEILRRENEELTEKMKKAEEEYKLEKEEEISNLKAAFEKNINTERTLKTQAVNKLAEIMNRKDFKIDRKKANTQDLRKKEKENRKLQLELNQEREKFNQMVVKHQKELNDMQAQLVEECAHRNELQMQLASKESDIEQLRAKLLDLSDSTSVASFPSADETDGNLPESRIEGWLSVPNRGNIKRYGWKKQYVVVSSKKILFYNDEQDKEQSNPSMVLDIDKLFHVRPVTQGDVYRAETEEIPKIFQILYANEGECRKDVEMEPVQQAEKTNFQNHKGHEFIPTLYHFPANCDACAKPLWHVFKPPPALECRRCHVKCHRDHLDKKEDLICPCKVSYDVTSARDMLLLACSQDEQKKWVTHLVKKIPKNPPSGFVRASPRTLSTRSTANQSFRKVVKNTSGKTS
Sequence of ROCK2 (O75116 whole entry): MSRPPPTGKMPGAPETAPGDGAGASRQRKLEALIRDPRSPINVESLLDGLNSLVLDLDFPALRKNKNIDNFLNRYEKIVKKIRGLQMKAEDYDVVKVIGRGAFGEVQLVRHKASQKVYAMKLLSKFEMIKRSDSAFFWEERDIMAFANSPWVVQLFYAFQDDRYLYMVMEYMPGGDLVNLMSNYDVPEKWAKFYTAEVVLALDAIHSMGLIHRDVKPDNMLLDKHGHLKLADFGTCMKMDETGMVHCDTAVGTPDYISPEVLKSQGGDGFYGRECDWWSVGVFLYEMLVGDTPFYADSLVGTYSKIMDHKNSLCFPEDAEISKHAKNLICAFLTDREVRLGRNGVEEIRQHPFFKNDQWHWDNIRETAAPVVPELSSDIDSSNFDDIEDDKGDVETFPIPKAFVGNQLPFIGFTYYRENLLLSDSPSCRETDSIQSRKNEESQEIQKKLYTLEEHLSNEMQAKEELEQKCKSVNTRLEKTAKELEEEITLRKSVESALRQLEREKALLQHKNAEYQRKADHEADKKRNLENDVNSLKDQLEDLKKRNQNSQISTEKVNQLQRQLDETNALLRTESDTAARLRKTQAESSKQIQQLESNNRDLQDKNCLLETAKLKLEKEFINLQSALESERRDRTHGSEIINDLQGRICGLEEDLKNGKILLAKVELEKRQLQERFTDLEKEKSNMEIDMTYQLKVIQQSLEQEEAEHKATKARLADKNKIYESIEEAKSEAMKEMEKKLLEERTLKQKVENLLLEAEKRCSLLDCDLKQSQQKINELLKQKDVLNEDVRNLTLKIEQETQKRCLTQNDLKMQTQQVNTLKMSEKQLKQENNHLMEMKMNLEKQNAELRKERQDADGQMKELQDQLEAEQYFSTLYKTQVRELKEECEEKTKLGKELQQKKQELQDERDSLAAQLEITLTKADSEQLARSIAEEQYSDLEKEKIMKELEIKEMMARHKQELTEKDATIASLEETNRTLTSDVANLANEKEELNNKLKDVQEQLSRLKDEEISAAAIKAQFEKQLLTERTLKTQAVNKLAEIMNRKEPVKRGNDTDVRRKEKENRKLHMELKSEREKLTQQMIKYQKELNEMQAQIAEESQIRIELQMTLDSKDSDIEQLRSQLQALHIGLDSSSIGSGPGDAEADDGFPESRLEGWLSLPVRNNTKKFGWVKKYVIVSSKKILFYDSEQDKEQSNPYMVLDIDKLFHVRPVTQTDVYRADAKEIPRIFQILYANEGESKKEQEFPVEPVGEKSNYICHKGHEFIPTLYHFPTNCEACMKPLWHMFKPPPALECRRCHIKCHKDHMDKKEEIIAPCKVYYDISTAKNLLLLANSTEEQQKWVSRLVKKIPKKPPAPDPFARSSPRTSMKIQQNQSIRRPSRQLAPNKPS

`CN(C)Cc1cccc(CNC(=O)c2cccc(CNc3ncc(-c4cn[nH]c4)c4c3CCO4)c2)c1` [Example 19, 3-(((7-(1H-pyrazol-4-yl)-2,3-dihydrofuro[3,2-c]pyridin-4-yl)amino)methyl)-N-(3-((dimethylamino)methyl)benzyl)benzamide]: the Ki on ROCK1 and on ROCK2 was at most 3 nM throughout.

As for `CN1CCc2cc(C(=O)Nc3cccc(CNc4ncc(-c5cn[nH]c5)c5c4CCO5)c3)cnc2C1` [Example 51, N-(3-(((7-(1H-pyrazol-4-yl)-2,3-dihydrofuro[3,2-c]pyridin-4-yl)amino)methyl)phenyl)-7-methyl-5,6,7,8-tetrahydro-1,7-naphthyridine-3-carboxamide], the inhibitory constant (Ki) at ROCK1 and at ROCK2 was at most 3 nM each time.

Regarding `Cn1nc(C(=O)Nc2cccc(CNc3ncc(-c4cn[nH]c4)c4c3CCO4)c2)c2ccccc21` [Example 41, N-(3-(((7-(1H-pyrazol-4-yl)-2,3-dihydrofuro[3,2-c]pyridin-4-yl)amino)methyl)phenyl)-1-methyl-1H-indazole-3-carboxamide], the Ki was over 30 nM on ROCK1 and 3 to 30 nM on ROCK2.

As for `CN1CCc2nc(NC(=O)c3cccc(CNc4ncc(-c5cn[nH]c5)c5c4CCO5)c3)sc2C1` [Example 21, 3-(((7-(1H-pyrazol-4-yl)-2,3-dihydrofuro[3,2-c]pyridin-4-yl)amino)methyl)-N-(5-methyl-4,5,6,7-tetrahydrothiazolo[5,4-c]pyridin-2-yl)benzamide], the inhibitory constant (Ki) at ROCK1 and on ROCK2 was at most 3 nM in each case.

On to `O=C(NCCc1ccncc1)c1cccc(CNc2ncc(-c3cn[nH]c3)c3c2CCO3)c1` [Example 17, 3-(((7-(1H-pyrazol-4-yl)-2,3-dihydrofuro[3,2-c]pyridin-4-yl)amino)methyl)-N-(2-(pyridin-4-yl)ethyl)benzamide], for which the Ki at ROCK1 and at ROCK2 was at most 3 nM throughout.

In the case of `CN(C)Cc1cccc(NC(=O)c2cccc(CNc3ncc(-c4cn[nH]c4)c4c3CCO4)c2)c1` [Example 18, 3-(((7-(1H-pyrazol-4-yl)-2,3-dihydrofuro[3,2-c]pyridin-4-yl)amino)methyl)-N-(3-((dimethylamino)methyl)phenyl)benzamide], the inhibition constant Ki on ROCK1 and on ROCK2 was at most 3 nM each time.

For `CN1CCc2nc(CNC(=O)c3cccc(CNc4ncc(-c5cn[nH]c5)c5c4CCO5)c3)sc2C1` [Example 29, 3-(((7-(1H-pyrazol-4-yl)-2,3-dihydrofuro[3,2-c]pyridin-4-yl)amino)methyl)-N-((5-methyl-4,5,6,7-tetrahydrothiazolo[5,4-c]pyridin-2-yl)methyl)benzamide], the figures for the inhibition constant Ki on ROCK1 and at ROCK2 were 3 to 30 nM and at most 3 nM, respectively.

In the case of `O=C(NC1CCN(CCc2ccccc2)CC1)c1cccc(CNc2ncc(-c3cn[nH]c3)c3c2CCO3)c1` [Example 26, 3-(((7-(1H-pyrazol-4-yl)-2,3-dihydrofuro[3,2-c]pyridin-4-yl)amino)methyl)-N-(1-phenethylpiperidin-4-yl)benzamide], the Ki on ROCK1 and at ROCK2 was at most 3 nM in each case.

As to `CN1Cc2ccc(CNC(=O)c3cccc(CNc4ncc(-c5cn[nH]c5)c5c4CCO5)c3)cc2C1` [Example 30, 3-(((7-(1H-pyrazol-4-yl)-2,3-dihydrofuro[3,2-c]pyridin-4-yl)amino)methyl)-N-((2-methylisoindolin-5-yl)methyl)benzamide], the Ki on ROCK1 and at ROCK2 was at most 3 nM each time.

In the case of `CN1CCc2nc(C(=O)Nc3cccc(CNc4ncc(-c5cn[nH]c5)c5c4CCO5)c3)sc2C1` [Example 37, N-(3-(((7-(1H-pyrazol-4-yl)-2,3-dihydrofuro[3,2-c]pyridin-4-yl)amino)methyl)phenyl)-5-methyl-4,5,6,7-tetrahydrothiazolo[5,4-c]pyridine-2-carboxamide], the Ki on ROCK1 and on ROCK2 was at most 3 nM throughout.

Consider `CN(C)Cc1ccc(C(=O)Nc2cccc(CNc3ncc(-c4cn[nH]c4)c4c3CCO4)c2)cc1` [Example 35, N-(3-(((7-(1H-Pyrazol-4-yl)-2,3-dihydrofuro[3,2-c]pyridin-4-yl)amino)methyl)phenyl)-4-((dimethylamino)methyl)benzamide], for which the Ki on ROCK1 and at ROCK2 was at most 3 nM in each case.

As for `O=C(Nc1cccc(CNc2ncc(-c3cn[nH]c3)c3c2CCO3)c1)c1ccc2c(c1)CCNC2` [Example 40, N-(3-(((7-(1H-pyrazol-4-yl)-2,3-dihydrofuro[3,2-c]pyridin-4-yl)amino)methyl)phenyl)-1,2,3,4-tetrahydroisoquinoline-6-carboxamide], the inhibition constant (Ki) on ROCK1 and at ROCK2 was at most 3 nM in each case.

With `O=C(NCCN1CCOCC1)c1cccc(CNc2ncc(-c3cn[nH]c3)c3c2CCO3)c1` [Example 20, 3-(((7-(1H-pyrazol-4-yl)-2,3-dihydrofuro[3,2-c]pyridin-4-yl)amino)methyl)-N-(2-morpholinoethyl)benzamide], the Ki at ROCK1 and at ROCK2 was at most 3 nM in each case.

For `Cc1ccc(CNC(=O)c2cccc(CNc3ncc(-c4cn[nH]c4)c4c3CCO4)c2)s1` [Example 25, 3-(((7-(1H-pyrazol-4-yl)-2,3-dihydrofuro[3,2-c]pyridin-4-yl)amino)methyl)-N-((5-methylthiophen-2-yl)methyl)benzamide], the inhibitory constant (Ki) at ROCK1 and at ROCK2 was at most 3 nM in each case.

As for `CN(C)CCn1cc(NC(=O)c2cccc(CNc3ncc(-c4cn[nH]c4)c4c3CCO4)c2)cn1` [Example 27, 3-(((7-(1H-pyrazol-4-yl)-2,3-dihydrofuro[3,2-c]pyridin-4-yl)amino)methyl)-N-(1-(2-(dimethylamino)ethyl)-1H-pyrazol-4-yl)benzamide], the Ki on ROCK1 and on ROCK2 was at most 3 nM throughout.

`CN(C)Cc1ccc(CNC(=O)c2cccc(CNc3ncc(-c4cn[nH]c4)c4c3CCO4)c2)cc1` [Example 24, 3-(((7-(1H-pyrazol-4-yl)-2,3-dihydrofuro[3,2-c]pyridin-4-yl)amino)methyl)-N-(4-((dimethylamino)methyl)benzyl)benzamide]: the inhibition constant Ki on ROCK1 and on ROCK2 was at most 3 nM in each case.

On to `O=C(Nc1cccc(CNc2ncc(-c3cn[nH]c3)c3c2CCO3)c1)c1nc2c(s1)CN(CCO)CC2` [Example 38, N-(3-(((7-(1H-pyrazol-4-yl)-2,3-dihydrofuro[3,2-c]pyridin-4-yl)amino)methyl)phenyl)-5-(2-hydroxyethyl)-4,5,6,7-tetrahydrothiazolo[5,4-c]pyridine-2-carboxamide], for which the inhibition constant (Ki) on ROCK1 and at ROCK2 was at most 3 nM in each case.

As for `O=C(Nc1cc(CNc2ncc(-c3cn[nH]c3)c3c2CCO3)ccc1F)c1ccc2c(c1)CCNC2` [Example 47, N-(5-(((7-(1H-pyrazol-4-yl)-2,3-dihydrofuro[3,2-c]pyridin-4-yl)amino)methyl)-2-fluorophenyl)-1,2,3,4-tetrahydroisoquinoline-6-carboxamide], the Ki at ROCK1 and on ROCK2 was at most 3 nM each time.

As to `O=C(NCc1ccncc1)c1cccc(CNc2ncc(-c3cn[nH]c3)c3c2CCO3)c1` [Example 53, 3-(((7-(1H-pyrazol-4-yl)-2,3-dihydrofuro[3,2-c]pyridin-4-yl)amino)methyl)-N-(pyridin-4-ylmethyl)benzamide], the Ki on ROCK1 and on ROCK2 was at most 3 nM each time.

Regarding `O=C(Cc1ccccc1)Nc1cccc(CNc2ncc(-c3cn[nH]c3)c3c2CCO3)c1` [Example 50, N-(3-(((7-(1H-pyrazol-4-yl)-2,3-dihydrofuro[3,2-c]pyridin-4-yl)amino)methyl)phenyl)-2-phenylacetamide], the Ki on ROCK1 and at ROCK2 was 3 to 30 nM in each case.

Consider `O=C(NC1CCN(Cc2ccccc2)CC1)c1cccc(CNc2ncc(-c3cn[nH]c3)c3c2CCO3)c1` [Example 54, 3-(((7-(1H-pyrazol-4-yl)-2,3-dihydrofuro[3,2-c]pyridin-4-yl)amino)methyl)-N-(1-benzylpiperidin-4-yl)benzamide], for which the Ki on ROCK1 and at ROCK2 was at most 3 nM in each case.

With `CN(C)Cc1cccc(C(=O)Nc2cccc(CNc3ncc(-c4cn[nH]c4)c4c3CCO4)c2)c1` [Example 49, N-(3-(((7-(1H-pyrazol-4-yl)-2,3-dihydrofuro[3,2-c]pyridin-4-yl)amino)methyl)phenyl)-3-((dimethylamino)methyl)benzamide], the Ki at ROCK1 and on ROCK2 was at most 3 nM each time.

With `CN1CCc2sc(C(=O)Nc3cccc(CNc4ncc(-c5cn[nH]c5)c5c4CCO5)c3)nc2C1` [Example 36, N-(3-(((7-(1H-pyrazol-4-yl)-2,3-dihydrofuro[3,2-c]pyridin-4-yl)amino)methyl)phenyl)-5-methyl-4,5,6,7-tetrahydrothiazolo[4,5-c]pyridine-2-carboxamide], the Ki on ROCK1 and at ROCK2 was at most 3 nM each time.

`CC(=O)Nc1cccc(C(C)Nc2ncc(-c3cn[nH]c3)c3c2CCO3)c1` (stereo not drawn) [Example 52, N-(3-(1-((7-(1H-pyrazol-4-yl)-2,3-dihydrofuro[3,2-c]pyridin-4-yl)amino)ethyl)phenyl)acetamide]: the Ki on ROCK1 and at ROCK2 was 3 to 30 nM throughout.
